Laboratory results taken from publication PMC2192064 (The Journal of Experimental Medicine, 1995).
One block for each molecule: values may come before it. Where no end group is shown, it is not given here.

How the values were obtained:
[1] = biological target: T1, purified I-Au class II molecules (Mus musculus, UniProt P06344+P14438); assay: Class II-peptide-binding inhibition assay, I-Au
T1 sequence (P14438 1-227): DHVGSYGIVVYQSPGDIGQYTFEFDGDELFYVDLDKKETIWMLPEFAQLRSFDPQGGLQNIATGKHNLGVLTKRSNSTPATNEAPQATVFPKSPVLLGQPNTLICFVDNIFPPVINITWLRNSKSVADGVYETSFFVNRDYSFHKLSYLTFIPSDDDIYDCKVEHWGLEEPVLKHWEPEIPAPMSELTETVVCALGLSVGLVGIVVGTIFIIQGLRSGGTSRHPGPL
T1 sequence (P06344 28-263): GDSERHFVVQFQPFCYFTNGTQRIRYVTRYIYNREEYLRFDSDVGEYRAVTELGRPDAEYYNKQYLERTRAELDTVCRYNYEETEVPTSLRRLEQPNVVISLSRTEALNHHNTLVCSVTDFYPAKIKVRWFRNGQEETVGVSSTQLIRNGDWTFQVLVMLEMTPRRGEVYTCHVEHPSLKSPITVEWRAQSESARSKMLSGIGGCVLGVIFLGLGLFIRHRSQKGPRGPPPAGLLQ

[2] = test system: BWF1 mice; assay: Pathogenic potential: immunization of young BWF1 mice with peptides; format: in vivo, mouse; conditions: p34 or p84 immunization vs PBS/CFA/alum; p <0.05
[3] = test system: T cell-enriched splenic cells from 12-14-wk-old female BWF1 mice; assay: Proliferation of unprimed splenic T cells in response to peptides; format: cell-based, mouse; conditions: result in words
[4] = biological target: I-Ad class II molecule (mouse); assay: radioligand binding

IC50 [1]: 8 nM
Molecule: C[C@H](NC(=O)[C@H](C)NC(=O)[C@H](Cc1c[nH]cn1)NC(=O)[C@H](C)NC(=O)[C@H](C)NC(=O)[C@H](Cc1c[nH]cn1)NC(=O)[C@H](C)NC(=O)[C@H](C)NC(=O)[C@H](Cc1c[nH]cn1)NC(=O)[C@H](C)NC(=O)[C@H](C)NC(=O)[C@H](Cc1c[nH]cn1)NC(=O)[C@H](C)NC(=O)[C@H](C)NC(=O)[C@H](Cc1c[nH]cn1)NC(=O)[C@H](C)NC(=O)[C@@H](N)Cc1ccc(O)cc1)C(=O)O [RO IV]

Molecule: MNWVKQSHGKSL [p34]
plasma creatinine levels [2]: increase in plasma creatinine levels | proliferative responses in naive BWF1 T cells [3]: elicit proliferative responses

IC50 [4]: 110 nM
Molecule: OVA 323-336 (from UniProt P01012 324-337) (peptide)
